The text below walks through data of the RepoRT retention time repository (doi:10.1016/j.chroma.2019.01.023).

Common to all, as to conditions: stereoisomer not certain
Data set [1] is described as follows: HILIC, Waters ACQUITY UPLC BEH Amide, 150 × 2.1 mm, 1.7 µm, 40 °C, 0.5 mL/min, estimated dead time 0.66 min; A: 5% water + 95% acetonitrile; B: 70% water + 30% acetonitrile + 10 mM ammonium formate, pH 6.5; gradient (min/%B) 0/0 2/0 20/70 23/70 24/0 31/0.
Data set [2] in a line: RP, Phenomenex Kinetex C18, 150 × 2.1 mm, 1.7 µm, 30 °C, 0.3 mL/min, estimated dead time 1.1 min; A: water + 0.1% formic acid, pH 3; B: acetonitrile + 0.1% formic acid, pH 3; gradient (min/%B) 0/2 14/100 17/100 17.1/2 25/2.
Test in data set [3]: as above
The source holds these as a separate data set.

Data set [4] is described as follows: HILIC, Merck SeQuant ZIC-pHILIC, 150 × 2.1 mm, 5 µm, 40 °C, 0.3 mL/min, estimated dead time 1.1 min; A: acetonitrile; B: water + 2.8 mM ammonium formate, pH 9; gradient (min/%B) 0/5 1/5 10/51 13/51 13.1/5 20/5.

For the compound `CC(=O)c1ccc(O)cc1O` [2',4'-DIHYDROXYACETOPHENONE], the LC retention time in data set [1] is 0.96 min; in data set [2], 6.35 min; in data set [3], 6.45 min.

On to `O=C(O)c1ccc2ccccc2n1` [2-QUINOLINECARBOXYLATE], for which the figures for the LC retention time in data set [1], in data set [4] and in data set [3] were 8.23 min, 5.63 min and 4.39 min, respectively.

In the case of `O=C(O)c1ccc([O-])c(O)c1` [3,4-DIHYDROXYBENZOATE], the figures for the LC retention time in data set [4], in data set [2] and in data set [3] were 8.04 min, 3.77 min and 3.88 min, respectively.

With `N[C@@H](Cc1cc(I)c(O)c(I)c1)C(=O)O` [3,5-DIIODO-L-TYROSINE], the values for the LC retention time in data set [4], in data set [2] and in data set [3] were 7.41 min, 4.8 min and 4.95 min, respectively.

Take `CC(O)(CC(=O)O)CC(=O)O` [3-HYDROXYMETHYLGLUTARATE]: the LC retention time in data set [4] was 8.15 min; in data set [2], 2.24 min; in data set [3], 2.36 min.

Regarding `N[C@@H](Cc1ccc(O)c([N+](=O)[O-])c1)C(=O)O` [3-NITRO-L-TYROSINE], the LC retention time in data set [4] was 7.37 min; in data set [2] it was 3.48 min; in data set [3] it was 3.56 min.

Consider `Nc1ccc(C(=O)[O-])cc1` [4-AMINOBENZOATE], for which the LC retention time is 1.11 min in data set [1], 4.05 min in data set [4] and 3.83 min in data set [3].

With `O=C(O)C=Cc1ccc(O)cc1` [4-COUMARATE], the results for the LC retention time in data set [4], in data set [2] and in data set [3] were 5.24 min, 5.47 min and 5.65 min, respectively.

Take `COc1cc(C(O)CO)ccc1O` (configuration not stated) [4-HYDROXY-3-METHOXYPHENYLGLYCOL]: the values for the LC retention time in data set [1] and in data set [3] were 1.01 min and 3.21 min, respectively.

Take `O=C(O)c1ccc([O-])cc1` [4-HYDROXYBENZOATE]: the LC retention time was 4.51 min in data set [2] and 4.66 min in data set [3].

For `Cc1ncc(CO)c(C(=O)O)c1O` [4-PYRIDOXATE], the LC retention time in data set [4] was 1.69 min; in data set [2] it was 2.73 min; in data set [3], 2.83 min.

Take `Cc1cc2nc[nH]c2cc1C` [5,6 DIMETHYLBENZIMIDAZOLE]: the LC retention time in data set [1] was 0.92 min; in data set [3] it was 4.83 min.

With `NC(Cc1c[nH]c2ccc(O)cc12)C(=O)O` (configuration not stated) [5-HYDROXYTRYPTOPHAN], the LC retention time in data set [4] was 8.74 min; in data set [2], 2.99 min; in data set [3] it was 3.05 min.

Take `O=C(O)CCCCCC(=O)O` [6-CARBOXYHEXANOATE]: the LC retention time in data set [4] was 6.74 min; in data set [2], 4.56 min; in data set [3] it was 4.73 min.

As for `CCCCC(CC)COC(=O)c1ccccc1C(=O)OCC(CC)CCCC` (configuration not stated) [BIS(2-ETHYLHEXYL)PHTHALATE], the figures for the LC retention time in data set [2] and in data set [3] were 9.02 min and 9.11 min, respectively.

In the case of `Cn1c(=O)c2c(ncn2C)n(C)c1=O` [CAFFEINE], the LC retention time in data set [1] is 1.03 min; in data set [3] it was 4.68 min.

In the case of `Nc1nc2c(ncn2C2OC3COP(=O)(O)OC3C2O)c(=O)[nH]1` (configuration not stated) [CYCLIC GMP], the results for the LC retention time in data set [4], in data set [2] and in data set [3] were 8.22 min, 2.64 min and 2.8 min, respectively.

On to `CC(CCC(=O)O)C1CCC2C3CCC4CC(O)CCC4(C)C3CC(O)C12C` (configuration not stated) [DEOXYCHOLATE], for which the figures for the LC retention time in data set [1] and in data set [3] were 1.01 min and 10.8 min, respectively.

Turning to `CC(=O)OCC(=O)C1CCC2C3CCC4=CC(=O)CCC4(C)C3CCC12C` (configuration not stated) [DEOXYCORTICOSTERONE ACETATE], the LC retention time in data set [3] is 11 min.

For the compound `CC(C)=CCCC(C)C1CCC2C3CC=C4CC(O)CCC4(C)C3CCC12C` (configuration not stated) [DESMOSTEROL], the LC retention time in data set [3] is 15.4 min.

Turning to `CC(O)C(O)C1=Nc2c(nc(N)[nH]c2=O)NC1` (configuration not stated) [DIHYDROBIOPTERIN], the LC retention time in data set [4] is 5.52 min; in data set [2], 4.09 min; in data set [3], 2.14 min.

Regarding `CC12CCC3c4ccc(O)cc4CCC3C1CCC2O` (stereo not drawn) [ESTRADIOL-17ALPHA], the LC retention time in data set [3] is 9.34 min.

Turning to `CCOC(=O)Cc1c[nH]c2ccccc12` [ETHYL 3-INDOLEACETATE], the LC retention time in data set [3] was 9.17 min.

With `Cc1cc2nc3c(=O)[nH]c(=O)nc-3n(CC(O)C(O)C(O)COP(=O)(O)OP(=O)(O)OCC3OC(n4cnc5c(N)ncnc54)C(O)C3O)c2cc1C` (configuration not stated) [FAD], the LC retention time is 8.07 min in data set [4] and 4.21 min in data set [3].

`Nc1nc2ncc(CNc3ccc(C(=O)NC(CCC(=O)O)C(=O)O)cc3)nc2c(=O)[nH]1` (configuration not stated) [FOLATE]: the results for the LC retention time in data set [4], in data set [2] and in data set [3] were 9.42 min, 11.3 min and 4.35 min, respectively.

On to `CCCCCC=CCC=CCC=CCCCCC(=O)[O-]` [GAMMA-LINOLENATE], for which the LC retention time in data set [2] and in data set [3] was 11.8 min each time.

For the compound `CCCCCCCCCCCCCC(=O)OCC(O)CO` (configuration not stated) [GLYCEROL-MYRISTATE], in data set [3], the LC retention time was 13.3 min.

In the case of `CC(CCC(=O)NCC(=O)O)C1CCC2C3C(O)CC4CC(O)CCC4(C)C3CCC12C` (configuration not stated) [GLYCOCHENODEOXYCHOLATE], the LC retention time in data set [4] was 4.94 min; in data set [2] it was 9.21 min; in data set [3], 9.28 min.

On to `CC(CCC(=O)NCC(=O)O)C1CCC2C3C(O)CC4CC(O)CCC4(C)C3CC(O)C12C` (configuration not stated) [GLYCOCHOLATE], for which the results for the LC retention time in data set [1], in data set [4] and in data set [3] were 6.3 min, 5.5 min and 8.13 min, respectively.

Take `O=C([O-])Cc1c[nH]c2ccccc12` [INDOLE-3-ACETATE]: in data set [3], the LC retention time was 6.54 min.

Turning to `COC(=O)Cc1c[nH]c2ccccc12` [INDOLE-3-METHYL ACETATE], the LC retention time in data set [3] is 8.33 min.

For the compound `O=CCc1c[nH]c2ccccc12` [INDOLEACETALDEHYDE], the LC retention time in data set [1] was 1.02 min; in data set [3], 4.83 min.

With `N[C@@H](Cc1ccc(O)c(O)c1)C(=O)O` [L-DOPA], the LC retention time is 9.15 min in data set [4], 1.57 min in data set [2] and 1.63 min in data set [3].

For `NC(Cc1cc(I)c(Oc2ccc(O)c(I)c2)c(I)c1)C(=O)O` (configuration not stated) [LIOTHYRONINE], the values for the LC retention time in data set [4], in data set [2] and in data set [3] were 6.19 min, 7.41 min and 7.42 min, respectively.

For the compound `NC(=O)CCCCC1CCSS1` (configuration not stated) [LIPOAMIDE], the LC retention time was 0.88 min in data set [1] and 6.87 min in data set [3].

Consider `O=C(O)CC(O)C(=O)O` (configuration not stated) [MALATE], for which the LC retention time in data set [4] is 9.39 min; in data set [3] it was 2.8 min.

Take `CC(C)=CCCC(C)=CCCC(C)=CCCC(C)=CCCC(C)=CCCC(C)=CCCC(C)=CCC1=C(C)C(=O)c2ccccc2C1=O` [MENAQUINONE]: the LC retention time in data set [3] is 11.9 min.

Take `CCCCCCCCCCCCCC(=O)O` [MYRISTATE]: the LC retention time in data set [3] is 11.6 min.

On to `CC(=O)NC(CCC(=O)O)C(=O)O` (configuration not stated) [N-ACETYLGLUTAMATE], for which the LC retention time in data set [4] is 8.75 min; in data set [2] it was 1.78 min; in data set [3] it was 1.9 min.

Regarding `CC(=O)N1CCCC1C(=O)O` (configuration not stated) [N-ACETYLPROLINE], the figures for the LC retention time in data set [4], in data set [2] and in data set [3] were 6.05 min, 3.39 min and 3.52 min, respectively.

Consider `CCCCCCCCCCCCCCCC(=O)O` [PALMITATE], for which the LC retention time in data set [3] was 11.8 min.

For `O=CCc1ccccc1` [PHENYLACETALDEHYDE], the LC retention time in data set [3] is 9.47 min.

Turning to `O=C1CCC(C(=O)O)N1` (configuration not stated) [PYROGLUTAMATE], the LC retention time in data set [3] was 1.71 min.

For `O=C(O)c1cccnc1C(=O)O` [QUINOLINATE], the LC retention time was 1.76 min in data set [4], 1.47 min in data set [2] and 1.5 min in data set [3].

With `CC(C=CC1=C(C)CCCC1(C)C)=CC=CC(C)=CC(=O)[O-]` [RETINOATE], the LC retention time is 8.2 min in data set [2] and 11.2 min in data set [3].

Regarding `CCCCCCSCC(NC(=O)CCC(N)C(=O)O)C(=O)NCC(=O)O` (configuration not stated) [S-HEXYL-GLUTATHIONE], the LC retention time in data set [2] is 6.22 min; in data set [3] it was 6.27 min.

As to `C[Se]CCC(N)C(=O)O` (configuration not stated) [SELENOMETHIONINE], the LC retention time in data set [1] is 8.56 min; in data set [4], 6.81 min; in data set [3], 1.76 min.

As for `Cn1cnc2c1c(=O)[nH]c(=O)n2C` [THEOBROMINE], the LC retention time in data set [1] is 1.32 min; in data set [4], 1.93 min; in data set [3], 3.68 min.

On to `NC(Cc1cc(I)c(Oc2cc(I)c(O)c(I)c2)c(I)c1)C(=O)O` (configuration not stated) [THYROXINE], for which the LC retention time was 6.1 min in data set [4], 8.07 min in data set [2] and 8.06 min in data set [3].

With `NCCc1c[nH]c2ccccc12` [TRYPTAMINE], the figures for the LC retention time in data set [1] and in data set [3] were 7.11 min and 5.12 min, respectively.

With `O=C([O-])c1c[nH]c(=O)[nH]c1=O` [URACIL 5-CARBOXYLATE], the LC retention time was 1.8 min in data set [2] and 1.93 min in data set [3].

For the compound `O=C(O)c1cc(=O)c2cccc(O)c2[nH]1` [XANTHURENATE], the values for the LC retention time in data set [4], in data set [2] and in data set [3] were 6.93 min, 4.05 min and 4.12 min, respectively.
